According to patent publication US10463753B2, “Radiolabeled monoacylglycerol lipase occupancy probe” (LUNDBECK LA JOLLA RESEARCH CENTER, INC., priority 2016, dated 2019):

Columns and labels:
[1] = Phase 0 whole-body biodistribution and radiation dosimetry by PET; format: in vivo, human
Method: (§1) An additional cohort of four healthy volunteers (two male, two female) was recruited for a whole body biodistribution cohort in which they underwent a single Compound 8F PET scan.
Elimination via the urinary route was very low.
The following organs were identified as source organs: brain, heart, liver, gallbladder, intestines, kidneys, and urinary bladder. […] The average whole body effective dose (ED) was determined to be 2.19E-02±2.83E-04 mSv/MBq (8.10E-02±1.05E-03 rem/mCi) for adult female and 1.85E-02±7.07E-04 mSv/MBq (6.85E-02±2.62E-03 rem/mCi) for adult male, where the critical organ was determined to be the liver. Stated differently, average whole body ED for females=21.9 μSv/MBq, and for males=18.5 μSv/MBq (average for male and female=20.2 μSv/MBq).

[2] = Whole-body biodistribution and radiation dosimetry by PET imaging; format: in vivo, rhesus monkey
Method: The average PET image over the total acquisition duration (˜240 min) of a female rhesus is shown in FIG. 6 (abbreviations: CT=computerized tomography; gb=gallbladder; HU=Hounsfield units; PET=positron emission tomography; SUV=standardized uptake value; ub=urinary bladder; VOI=volume of interest) at three different levels through the body. […] The volumes of interest (VOIs) drawn over the organs identified as sources for the radiation dosimetry calculation can be seen on both average PET and its associated computed tomography (CT) image. […] Selected organs are labeled in the figure. The non-decay corrected (used for the dosimetry calculation) and decay corrected time activity curves of the 11 source organs are shown in FIG. 8 for both the female and male rhesus monkey. The curve values are expressed as percent of injected activity. The total absorbed doses in various target organs generated by OLINDA|EXM 1.1 software are presented in Table 4 for both adult male and adult female models in units of millisievert per megabecquerel (mSv/MBq) and roentgen equivalent man per millicurie (rem/mCi). Kidneys received the highest radiation dose in both the male and female rhesus. The effective dose equivalent (with ICRP-26 tissue weighting factors) and effective dose (with ICRP-60 tissue weighting factors) calculated for the whole body are also listed in Table 4.

[3] = In vitro plasma protein binding by ultrafiltration; format: in vitro ADME; conditions: rhesus monkey, read-out: Plasma free fraction (not protein bound)
[4] = Free fraction of parent compound in plasma by ultrafiltration; format: in vitro ADME; conditions: human plasma, n=10; read-out: Free fraction of parent compound in plasma (not protein bound)
Method: (§2) Blood samples were analyzed by HPLC to determine the fraction of intact parent compound at each time point. […] Free fraction of parent compound in plasma (not protein bound) was also measured by ultrafiltration and estimated to be 0.36±0.04% (n=10).

[5] = arterial plasma
[6] = Phase 0 study: parent fraction in blood/plasma by HPLC; format: in vivo; conditions: human blood
Method: as §1, §2

[7] = whole-body biodistribution cohort

O=C(OC(C(F)(F)F)C(F)(F)F)N1CCN(Cc2ccc(Cl)cc2N2CCN(CC[18F])CC2)CC1 [Compound 8F, [^18F]1,1,1,3,3,3-hexafluoropropan-2-yl 4-(4-chloro-2-(4-(2-fluoroethyl)piperazin-1-yl)benzyl)piperazine-1-carboxylate]
Average whole body ED ([1]; average for male and female): 20.2 μSv/MBq | Average whole body ED ([1]; females): 21.9 μSv/MBq | Average whole body ED ([1]; males): 18.5 μSv/MBq | Elimination via the urinary route [1, 7]: very low | Maximum injected dose (ID) in the intestine [1, 7]: 6-7 % ID | Maximum injected dose (ID) in the liver [1, 7]: 26-28 % injected dose (ID) | Organ with highest radiation absorbed dose (critical organ) [1, 7]: liver | Route of elimination of the radiotracer [1, 7]: primarily via hepatobiliary route | Organ receiving the highest radiation dose ([2]; both male and female rhesus): Kidneys | Organs with the highest uptake ([2]; i.v. bolus, whole-body PET): liver, heart wall, lungs, kidney and brain | fraction unbound ([3]; first study): 0.047 ± 0.006 | fraction unbound ([3]; second study): 0.008 ± 0.0004 | fraction unbound [4]: 0.0036 ± 0.0004 | Plasma level ([5]; by ~10 min post-dose): ≤ 0.01 % of the injected dose | Peak plasma concentration ([5]; single i.v. 2.25-4.99 mCi): ~0.04 % of the injected dose | Time of peak plasma concentration post-dose ([5]; single i.v. dose): ~5 min | Stability in blood ex vivo [6]: stable
